Reference: patent US8278337B2, “Substituted pyridines that are JNK inhibitors” (Merck Sharp & Dohme, priority 2006, dated 2012)
“And” between values parts separate entries of the source, which are not always exact repeats. Equal values may be shown once.

target: JNK1 (Homo sapiens, UniProt P45983); assay: DELFIA kinase assay, JNK1; type: biochemical; conditions: DELFIA assay, 2 nM JNK1, 7 uM ATP, 10 min pre-incubation
Experimental: Assay DELFIA (Dissociation Enhanced Lanthanide Fluorescence Immuno-Assay) Assay:
Before initiation of kinase reactions, compounds were pre-incubated with the enzyme for 10 minutes. Pre-incubation reactions contained 50 mM HEPES pH 7.3, 10 mM MgCl2, 1 mM DTT, 75 mM NaCl, 1 mM EDTA, 1 mM EGTA, 0.01% CHAPS, 2 nM JNK1, 6 ug/mL biotinylated GST-ATF2, 0.1 mg/ml BSA, 5% DMSO and 0-100 μM compound in a total volume of 40 μL. After a 10 minute room temperature pre-incubation, 10 μL of 35 μM ATP was added to start the reaction (final concentration of ATP=7 uM). Reactions were incubated at room temperature for 30 minutes. A small aliquot (10 uL) was taken and quenched by adding into 190 uL of DELFIA Assay buffer containing 100 mM EDTA. The amount of phosphate transferred to biotinylated GST-ATF2 was measured using the Dissociation Enhanced Lanthanide Fluorescence Immuno-assay (DELFIA) from Perkin Elmer according to manufacturers protocol. Briefly, biotinylated GST-ATF2 was captured on streptavidin coated plates for 1 hour, washed twice, then incubated for 1 hour with a 1:1000 dilution of rabbit-anti-phospho-ATF2 antibody and a 1:3500 dilution of Europium-labeled anti-rabbit secondary antibody. Free antibody was removed with six washes, Europium was dissociated from the antibody, and Europium fluorescence was measured using an excitation wavelength of 340 nm and an emission wavelength of 615 nm. JNK2 and JNK3 kinase reactions were carried out similarly, with the exception that the final concentration of ATP was 4 uM and 2 uM, respectively.

Chain of JNK1 (P45983 whole entry, species assumed): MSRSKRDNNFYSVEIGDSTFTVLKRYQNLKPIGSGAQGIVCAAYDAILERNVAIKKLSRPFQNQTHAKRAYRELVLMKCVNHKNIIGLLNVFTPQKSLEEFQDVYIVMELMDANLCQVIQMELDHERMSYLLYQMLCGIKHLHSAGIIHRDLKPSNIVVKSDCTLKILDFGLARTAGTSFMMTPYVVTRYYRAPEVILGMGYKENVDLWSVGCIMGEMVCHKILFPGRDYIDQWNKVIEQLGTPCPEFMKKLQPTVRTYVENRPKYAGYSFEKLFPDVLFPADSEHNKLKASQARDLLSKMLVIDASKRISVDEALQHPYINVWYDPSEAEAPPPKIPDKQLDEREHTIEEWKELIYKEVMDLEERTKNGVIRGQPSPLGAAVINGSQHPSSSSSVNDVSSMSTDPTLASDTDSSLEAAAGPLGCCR

| SMILES | IC50 [nM] |
| --- | --- |
| CC(C)NC(=O)c1cccc(C(=O)NCc2cnn(-c3ccc(S(=O)(=O)N4CCNCC4)c(Cl)c3)c2)n1 [Compound 248] | 7 |

same assay, conditions: DELFIA assay, 2 nM JNK1, 7 uM ATP, 10 min pre-incubation; second table; read-out: JNK 1 IC50

| SMILES | IC50 [nM] |
| --- | --- |
| CC(C)NC(=O)c1cccc(C(=O)NCc2cnn(-c3cnc4ccccc4c3)c2)n1 [Compound 144] | 7 |
| CC(C)NC(=O)c1cccc(C(=O)NCc2cnn(-c3ccc(S(=O)(=O)N4CCNCC4)c(Cl)c3)c2)n1 [Compound 248] | 7 |

same assay, conditions: DELFIA, biotinylated GST-ATF2 substrate, 10 minute pre-incubation, final ATP 7 uM

| SMILES | IC50 |
| --- | --- |
| CS(=O)(=O)c1ccc(CNC(=O)c2cccc(-n3cccn3)n2)cc1 [Compound 314] | > 1000 nM |
| O=C(NCc1cnn(-c2cccc(C(F)(F)F)c2)c1)c1cccc(N2CCCC2)n1 [Compound 343] | 1030 to 10000 nM and > 1000 nM |
| CC(C)NC(=O)c1cccc(C(=O)NCc2cnn(-c3cnc4ccccc4c3)c2)n1 [Compound 144] | 4 to 19 nM and 4 to 97 nM |
| CC(C)C(=O)N(C)c1cccc(C(=O)NCc2cnn(-c3cccc(C(F)(F)F)c3)c2)n1 [Compound 365] | > 1000 nM and 1030 to 10000 nM |
| CC(C)NC(=O)c1cccc(C(=O)NCc2cnn(C(C)C)c2)n1 [Compound 117] | 102 to 959 nM |
| CC(C)NC(=O)c1cccc(C(=O)NCC2CCN(C(=O)OC(C)(C)C)C2)n1 (stereo not drawn) [Compound 95] | > 1000 nM and 1030 to 10000 nM |
| CC(C)NC(=O)c1cccc(C(=O)NCc2cnn(-c3ccc([S+](C)[O-])cc3)c2)n1 (stereo not drawn) [Compound 154] | 4 to 97 nM |
| CC(C)[C@H](CO)NC(=O)c1cccc(C(=O)NCc2ccc3nc(N)sc3c2)n1 [Compound 50] | 102 to 959 nM |
| CC(C)NC(=O)c1cccc(C(=O)NCc2nc3ccccc3s2)n1 [Compound 85] | 4 to 97 nM |
| Nc1nc2ccc(CNC(=O)c3cccc(C(=O)N[C@H](CO)Cc4ccccc4)n3)cc2s1 [Compound 23] | 102 to 959 nM |
| CCOC(=O)N1CCC(NC(=O)c2cccc(NC(=O)Cc3ccc(S(C)(=O)=O)cc3)n2)CC1 [Compound 402] | > 1000 nM and 1030 to 10000 nM |
| CC(C)NC(=O)c1cccc(C(=O)NCc2cnn(-c3cccc(S(C)(=O)=O)c3)c2)n1 [Compound 136] | 4 to 97 nM |
| CC(=O)N1CCC(NC(=O)c2cccc(C(=O)NCc3ccc4nc(N)sc4c3)n2)CC1 [Compound 28] | 102 to 959 nM |
| CC(C)NC(=O)c1cccc(C(=O)Nc2cccnc2)n1 [Compound 90] | > 1000 nM and 1030 to 10000 nM |
| CCOC(=O)N1CCC(NC(=O)c2cccc(C(=O)NCC(C)C)n2)CC1 [Compound 41] | > 1000 nM |
| CC(C)NC(=O)c1cccc(C(=O)NCc2ccc(-c3cccc(C#N)c3)cc2)n1 [Compound 194] | 102 to 959 nM |
| Cc1cnc(CNC(=O)c2cccc(C(=O)NC(C)C)n2)cn1 [Compound 92] | > 1000 nM and 1030 to 10000 nM |
| Nc1nc2ccc(CNC(=O)c3cccc(C(=O)N[C@@H](CO)c4ccccc4)n3)cc2s1 [Compound 54] | > 1000 nM and 1030 to 10000 nM |
| CC(C)NC(=O)c1cccc(C(=O)NCc2cnn(-c3cccc(F)c3)c2)n1 [Compound 139] | 4 to 97 nM |
| Nc1nc2ccc(CNC(=O)c3cccc(C(=O)NC[C@@H](O)c4ccccc4)n3)cc2s1 [Compound 24] | > 1000 nM |
| CC(C)NC(=O)c1cccc(C(=O)NCc2cn[nH]c2)n1 [Compound 119] | > 1000 nM and 1030 to 10000 nM |
| Cc1ccc(CNC(=O)c2cccc(C(=O)NC(C)C)n2)cc1F [Compound 110] | 102 to 959 nM |
| CC(=O)NCCNC(=O)c1cccc(C(=O)NCc2ccc3nc(N)sc3c2)n1 [Compound 16] | > 1000 nM |
| CC(C)CCNC(=O)c1cccc(C(=O)NCc2ccc3nc(N)sc3c2)n1 [Compound 71] | 102 to 959 nM |

| SMILES | IC50 |
| --- | --- |
| CCOC(=O)N1CCC(NC(=O)c2cccc(C(=O)NCc3ccc(S(C)(=O)=O)cc3)n2)CC1 [Compound 43] | 102 to 959 nM |
| Nc1nc2ccc(CNC(=O)c3cccc(CO)n3)cc2s1 [Compound 63] | 1030 to 10000 nM and > 1000 nM |
| CC(C)NC(=O)c1cccc(C(=O)NCc2cnn(-c3cnc4nccn4c3)c2)n1 [Compound 213] | 102 to 959 nM |
| CC(C)NC(=O)c1cccc(C(=O)NCc2ccc3c(c2)OCO3)n1 [Compound 89] | 102 to 959 nM |
| CC(C)NC(=O)c1cccc(C(=O)NCc2cnn(-c3ccc4nc(-c5cccnc5)n(C)c4c3)c2)n1 [Compound 238] | 4 to 97 nM and 4 to 19 nM |
| Cc1nc2cc(CNC(=O)c3cccc(C(=O)NC(C)C)n3)ccc2n1C [Compound 127] | 102 to 959 nM |
| C[C@@H](CO)NC(=O)c1cc(-c2ccccc2)cc(C(=O)NCc2ccc(S(C)(=O)=O)cc2)n1 [Compound 407] | > 1000 nM and 1030 to 10000 nM |
| CS(=O)(=O)c1ccc(CNC(=O)c2cccc(-c3cc4ccccc4[nH]3)n2)cc1 [Compound 339] | > 1000 nM and 1030 to 10000 nM |
| CC(C)NC(=O)c1cccc(C(=O)NCc2cccc(-c3ccc(C#N)cc3)c2)n1 [Compound 190] | 102 to 959 nM |
| CC(C)NC(=O)c1cccc(C(=O)NCc2cncc(-c3cccc(C#N)c3)c2)n1 [Compound 258] | 4 to 97 nM |
| CC(C)NC(=O)c1cccc(C(=O)NCc2ccc3nc(N)sc3c2)n1 [Compound 5] | 4 to 97 nM |
| CC(C)NC(=O)c1cccc(C(=O)NCc2cnn(-c3cnc4[nH]cnc4c3)c2)n1 [Compound 219] | 4 to 97 nM |
| CC(C)NC(=O)c1cccc(C(=O)NCc2cccc(-c3cccc(S(C)(=O)=O)c3)c2)n1 [Compound 191] | 4 to 97 nM |
| CCCNC(=O)c1cccc(C(=O)NCc2ccc3nc(N)sc3c2)n1 [Compound 65] | 102 to 959 nM |
| CC(C)(C)c1nnc(-c2cccc(C(=O)NCc3cnn(-c4ccc(S(C)(=O)=O)cc4)c3)n2)o1 [Compound 302] | 102 to 959 nM |
| CC(C)NC(=O)c1cccc(C(=O)NCc2cnn(-c3ccc(S(=O)(=O)N4CCNCC4)c(Cl)c3)c2)n1 [Compound 248] | 4 to 19 nM and 4 to 97 nM |
| Nc1nc2ccc(CNC(=O)c3cccc(C(=O)N4CCCC(O)C4)n3)cc2s1 (stereo not drawn) [Compound 34] | > 1000 nM |
| CC(C)NC(=O)c1cccc(C(=O)NCc2ccc(-c3cccc(Cl)c3)nc2)n1 [Compound 176] | 102 to 959 nM |
| Nc1nc2ccc(CNC(=O)c3cccc(C(=O)NCCCn4ccnc4)n3)cc2s1 [Compound 69] | 102 to 959 nM |
| CC(C)NC(=O)c1cccc(C(=O)NCc2ccc(-c3cc(Cl)cc(Cl)c3)nc2)n1 [Compound 185] | 102 to 959 nM |
| CC(C)NC(=O)c1cccc(C(=O)NCc2cnn(-c3ccncc3)c2)n1 [Compound 159] | 102 to 959 nM |
| Cc1cc(C)n(-c2cccc(C(=O)NCc3ccc(S(C)(=O)=O)cc3)n2)n1 [Compound 320] | > 1000 nM and 1030 to 10000 nM |
| CC(C)NC(=O)c1cccc(C(=O)NCc2cnn(-c3ccccn3)c2)n1 [Compound 156] | 102 to 959 nM |
| CS(=O)(=O)c1ccc(CNC(=O)c2cccc(C(=O)NC3CCN(S(C)(=O)=O)CC3)n2)cc1 [Compound 58] | > 1000 nM |

| SMILES | IC50 |
| --- | --- |
| CC(C)C[C@@H](CO)NC(=O)c1cccc(C(=O)NCc2ccc3nc(N)sc3c2)n1 [Compound 21] | 102 to 959 nM |
| Cc1nn(-c2ccccc2)c(C)c1CNC(=O)c1cccc(C(=O)NC(C)C)n1 [Compound 105] | 1030 to 10000 nM and > 1000 nM |
| CC(C)NC(=O)c1cccc(C(=O)NCc2cccc(-c3ccccc3)c2)n1 [Compound 125] | 4 to 97 nM |
| NC(=O)Nc1cccc(C(=O)NCc2cnn(-c3cccc(C(F)(F)F)c3)c2)n1 [Compound 356] | 102 to 959 nM |
| C[C@H](NC(=O)c1cccc(C(=O)NCc2ccc3nc(N)sc3c2)n1)C(=O)O [Compound 66] | > 1000 nM and 1030 to 10000 nM |
| CCC(C)NC(=O)c1cccc(C(=O)NCc2ccc3nc(N)sc3c2)n1 (stereo not drawn) [Compound 7] | 4 to 97 nM |
| C[C@H](CO)NC(=O)c1cccc(C(=O)NCc2ccc3nc(N)sc3c2)n1 [Compound 49] | 102 to 959 nM |
| CCNC(=O)c1cccc(C(=O)NCc2ccc3nc(N)sc3c2)n1 [Compound 14] | > 1000 nM |
| CC(C)NC(=O)c1cccc(C(=O)NCc2ccc(-c3cccc(S(C)(=O)=O)c3)cc2)n1 [Compound 193] | 4 to 97 nM |
| CC(C)NC(=O)c1cccc(C(=O)NCc2cnn(-c3cc(Cl)cc(Cl)c3)c2)n1 [Compound 138] | 4 to 19 nM and 4 to 97 nM |
| CC(C)NC(=O)c1cccc(C(=O)NC(C)c2ccc(S(C)(=O)=O)cc2)n1 (stereo not drawn) [Compound 121] | 102 to 959 nM |
| Cn1cc(-c2cccc(C(=O)NCc3ccc(S(C)(=O)=O)cc3)n2)cn1 [Compound 333] | > 1000 nM and 1030 to 10000 nM |
| CS(=O)(=O)c1ccc(CNC(=O)c2cccc(C(=O)NC3CCN(S(=O)(=O)Cc4ccccc4)CC3)n2)cc1 [Compound 61] | > 1000 nM |
| CC(C)C(=O)N(C(=O)C(C)C)c1cccc(C(=O)NCc2cnn(-c3cccc(C(F)(F)F)c3)c2)n1 [Compound 364] | > 1000 nM and 1030 to 10000 nM |
| CC(C)NC(=O)c1cccc(C(=O)N[C@H](C)c2ccc(O)cc2)n1 [Compound 123] | 102 to 959 nM |
| Nc1nc2ccc(CNC(=O)c3cccc(C(=O)O)n3)cc2s1 [Compound 46] | > 1000 nM |
| CC(C)NC(=O)c1cccc(C(=O)NCc2ccn(-c3ccc(S(C)(=O)=O)cc3)n2)n1 [Compound 309] | 102 to 959 nM |
| CC(C)NC(=O)c1cccc(C(=O)NCc2cccnc2)n1 [Compound 93] | 102 to 959 nM |
| CC(C)NC(=O)c1cccc(C(=O)NCc2nc3ccccc3[nH]2)n1 [Compound 106] | 102 to 959 nM |
| CCOC(=O)N1CCC(NC(=O)c2cccc(C(=O)NCCc3ccccc3)n2)CC1 [Compound 45] | > 1000 nM |
| CNc1cccc(C(=O)NCc2cnn(-c3cccc(C(F)(F)F)c3)c2)n1 [Compound 362] | 102 to 959 nM |
| Cc1nn(C)c(C)c1CNC(=O)c1cccc(C(=O)NC(C)C)n1 [Compound 102] | 1030 to 10000 nM and > 1000 nM |
| Nc1nc2ccc(CNC(=O)c3cccc(C(=O)NC4CCN(Cc5ccccc5)CC4)n3)cc2s1 [Compound 30] | > 1000 nM |
| C[C@@H](CNC(=O)c1cccc(C(=O)NCc2ccc3nc(N)sc3c2)n1)c1ccccc1 [Compound 70] | 102 to 959 nM |
